Test results: the supplement of paper PMC10307832

How the values were obtained:
Assay in all cases: relative viability (nuclei count vs DMSO), 5 days (fraction); higher = more cells survive
LU99A = tested on: LU99A
Summary of the method: (§1)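 Relative viability was taken as the ratio of nuclei in treated wells to nuclei in vehicle wells. Lung cancer cell lines in 1536-well plates received compounds by pin tool one day after seeding, either one drug alone or a fixed anchor-drug dose plus five library-drug doses (not always all listed) in √10 steps. Nuclei were counted on 4× images after 5 days of treatment, and values are medians of duplicate plates.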

COR-L23 = tested on: COR-L23
Summary of the method: as §1

NCI-H441 = tested on: NCI-H441
Summary of the method: as §1

NCI-H1563 = tested on: NCI-H1563
Summary of the method: as §1

NCI-H838 = tested on: NCI-H838
Summary of the method: as §1

BEN = tested on: BEN
Summary of the method: as §1

NCI-H1651 = tested on: NCI-H1651
Summary of the method: as §1

LOU-NH91 = tested on: LOU-NH91
Summary of the method: as §1

NCI-H1437 = tested on: NCI-H1437
Summary of the method: as §1

NCI-H1793 = tested on: NCI-H1793
Summary of the method: as §1

NCI-H2085 = tested on: NCI-H2085
Summary of the method: as §1

SK-LU-1 = tested on: SK-LU-1
Summary of the method: as §1

NCI-H2023 = tested on: NCI-H2023
Summary of the method: as §1

CAL-12T = tested on: CAL-12T
Summary of the method: as §1

NCI-H1650 = tested on: NCI-H1650
Summary of the method: as §1

NCI-H1355 = tested on: NCI-H1355
Summary of the method: as §1

NCI-H1975 = tested on: NCI-H1975
Summary of the method: as §1

NCI-H2342 = tested on: NCI-H2342
Summary of the method: as §1

HCC-366 = tested on: HCC-366
Summary of the method: as §1

NCI-H460 = tested on: NCI-H460
Summary of the method: as §1

NCI-H1734 = tested on: NCI-H1734
Summary of the method: as §1

NCI-H358 = tested on: NCI-H358
Summary of the method: as §1

O=c1cc(N2CCOCC2)oc2c(-c3cccc4c3sc3ccccc34)cccc12 + COc1cc2c(Oc3ccc(NC(=O)C4(C(=O)Nc5ccc(F)cc5)CC4)cc3F)ccnc2cc1OCCCN1CCOCC1 [Foretinib] (partner 0.25 µM)
relative viability (LU99A; first compound 0.01 µM): 0.937 | relative viability (LU99A; first compound 0.03162 µM): 0.739 | relative viability (LU99A; first compound 0.1 µM): 0.908 | relative viability (LU99A; first compound 0.3162 µM): 0.806 | relative viability (LU99A; first compound 1 µM): 0.777 | relative viability (COR-L23; first compound 0.01 µM): 1.03 | relative viability (COR-L23; first compound 0.03162 µM): 0.996 | relative viability (COR-L23; first compound 0.1 µM): 0.954 | relative viability (COR-L23; first compound 0.3162 µM): 0.923 | relative viability (COR-L23; first compound 1 µM): 1.06 | relative viability (NCI-H441; first compound 0.01 µM): 1.17 | relative viability (NCI-H441; first compound 0.03162 µM): 0.864 | relative viability (NCI-H441; first compound 0.1 µM): 1.02 | relative viability (NCI-H441; first compound 0.3162 µM): 0.992 | relative viability (NCI-H441; first compound 1 µM): 0.969 | relative viability (NCI-H1563; first compound 0.01 µM): 0.913 | relative viability (NCI-H1563; first compound 0.03162 µM): 0.833 | relative viability (NCI-H1563; first compound 0.1 µM): 0.895 | relative viability (NCI-H1563; first compound 0.3162 µM): 0.901 | relative viability (NCI-H1563; first compound 1 µM): 0.888 | relative viability (NCI-H838; first compound 0.01 µM): 0.987 | relative viability (NCI-H838; first compound 0.03162 µM): 1.02 | relative viability (NCI-H838; first compound 0.1 µM): 1.12 | relative viability (NCI-H838; first compound 0.3162 µM): 0.958 | relative viability (NCI-H838; first compound 1 µM): 0.997 | relative viability (BEN; first compound 0.01 µM): 0.548 | relative viability (BEN; first compound 0.03162 µM): 0.861 | relative viability (BEN; first compound 0.1 µM): 0.57 | relative viability (BEN; first compound 0.3162 µM): 0.701 | relative viability (BEN; first compound 1 µM): 0.578 | relative viability (NCI-H1651; first compound 0.01 µM): 0.775 | relative viability (NCI-H1651; first compound 0.03162 µM): 0.766 | relative viability (NCI-H1651; first compound 0.1 µM): 0.958 | relative viability (NCI-H1651; first compound 0.3162 µM): 0.796 | relative viability (NCI-H1651; first compound 1 µM): 0.624 | relative viability (LOU-NH91; first compound 0.01 µM): 0.869 | relative viability (LOU-NH91; first compound 0.03162 µM): 0.938 | relative viability (LOU-NH91; first compound 0.1 µM): 1 | relative viability (LOU-NH91; first compound 0.3162 µM): 0.927 | relative viability (LOU-NH91; first compound 1 µM): 0.955 | relative viability (NCI-H1437; first compound 0.01 µM): 0.877 | relative viability (NCI-H1437; first compound 0.03162 µM): 1.28 | relative viability (NCI-H1437; first compound 0.1 µM): 1.26 | relative viability (NCI-H1437; first compound 0.3162 µM): 1.25 | relative viability (NCI-H1437; first compound 1 µM): 1.23 | relative viability (NCI-H1793; first compound 0.01 µM): 0.594 | relative viability (NCI-H1793; first compound 0.1 µM): 0.568 | relative viability (NCI-H1793; first compound 0.3162 µM): 0.685 | relative viability (NCI-H1793; first compound 1 µM): 0.486 | relative viability (NCI-H2085; first compound 0.01 µM): 0.96 | relative viability (NCI-H2085; first compound 0.03162 µM): 0.941 | relative viability (NCI-H2085; first compound 0.1 µM): 0.961 | relative viability (NCI-H2085; first compound 0.3162 µM): 0.912 | relative viability (NCI-H2085; first compound 1 µM): 0.944 | relative viability (SK-LU-1; first compound 0.01 µM): 0.893 | relative viability (SK-LU-1; first compound 0.03162 µM): 0.918 | relative viability (SK-LU-1; first compound 0.1 µM): 0.789 | relative viability (SK-LU-1; first compound 0.3162 µM): 0.834 | relative viability (SK-LU-1; first compound 1 µM): 0.768 | relative viability (NCI-H2023; first compound 0.01 µM): 0.719 | relative viability (NCI-H2023; first compound 0.03162 µM): 0.803 | relative viability (NCI-H2023; first compound 0.1 µM): 0.763 | relative viability (NCI-H2023; first compound 0.3162 µM): 0.873 | relative viability (NCI-H2023; first compound 1 µM): 0.636 | relative viability (CAL-12T; first compound 0.01 µM): 1.12 | relative viability (CAL-12T; first compound 0.03162 µM): 0.973 | relative viability (CAL-12T; first compound 0.1 µM): 1.14 | relative viability (CAL-12T; first compound 0.3162 µM): 1.03 | relative viability (CAL-12T; first compound 1 µM): 1.11 | relative viability (NCI-H1650; first compound 0.01 µM): 1.09 | relative viability (NCI-H1650; first compound 0.03162 µM): 1.09 | relative viability (NCI-H1650; first compound 0.1 µM): 1.04 | relative viability (NCI-H1650; first compound 0.3162 µM): 1.21 | relative viability (NCI-H1650; first compound 1 µM): 1.19 | relative viability (NCI-H1355; first compound 0.01 µM): 0.962 | relative viability (NCI-H1355; first compound 0.03162 µM): 1.01 | relative viability (NCI-H1355; first compound 0.1 µM): 0.952 | relative viability (NCI-H1355; first compound 0.3162 µM): 0.986 | relative viability (NCI-H1355; first compound 1 µM): 0.917 | relative viability (NCI-H1975; first compound 0.01 µM): 0.842 | relative viability (NCI-H1975; first compound 0.03162 µM): 1.1 | relative viability (NCI-H1975; first compound 0.1 µM): 1.1 | relative viability (NCI-H1975; first compound 0.3162 µM): 0.927 | relative viability (NCI-H1975; first compound 1 µM): 0.936 | relative viability (NCI-H2342; first compound 0.01 µM): 1.04 | relative viability (NCI-H2342; first compound 0.03162 µM): 1.11 | relative viability (NCI-H2342; first compound 0.1 µM): 0.997 | relative viability (NCI-H2342; first compound 0.3162 µM): 1.04 | relative viability (NCI-H2342; first compound 1 µM): 1.07 | relative viability (HCC-366; first compound 0.01 µM): 0.941 | relative viability (HCC-366; first compound 0.03162 µM): 0.918 | relative viability (HCC-366; first compound 0.1 µM): 0.99 | relative viability (HCC-366; first compound 0.3162 µM): 0.961 | relative viability (HCC-366; first compound 1 µM): 0.853 | relative viability (NCI-H460; first compound 0.01 µM): 0.981 | relative viability (NCI-H460; first compound 0.03162 µM): 1.03 | relative viability (NCI-H460; first compound 0.1 µM): 0.987 | relative viability (NCI-H460; first compound 0.3162 µM): 0.985 | relative viability (NCI-H460; first compound 1 µM): 1.04 | relative viability (NCI-H1734; first compound 0.01 µM): 0.851 | relative viability (NCI-H1734; first compound 0.03162 µM): 1.03 | relative viability (NCI-H1734; first compound 0.1 µM): 0.894 | relative viability (NCI-H1734; first compound 0.3162 µM): 0.837 | relative viability (NCI-H1734; first compound 1 µM): 0.78 | relative viability (NCI-H358; first compound 0.01 µM): 0.647 | relative viability (NCI-H358; first compound 0.03162 µM): 0.7 | relative viability (NCI-H358; first compound 0.1 µM): 0.667 | relative viability (NCI-H358; first compound 0.3162 µM): 0.741 | relative viability (NCI-H358; first compound 1 µM): 0.774
